Results: US7659289B2, “Hydroxyethylene-based β-secretase inhibitors and use thereof” (CoMentis, Inc., priority 2004, dated 2010)

Experiments:
Cathepsin D = Cathepsin D (Homo sapiens, UniProt P07339); assay: Inhibition of cathepsin D activity (MALDI-TOF, substrate peptide […]); assay type: biochemical; details: pH 4.1, 37 degrees C., read-out: Cath D Ki
memapsin 2 = memapsin 2 (Homo sapiens, UniProt P56817); assay: Inhibition of memapsin 2 beta-secretase activity toward fluorogenic substrate FS-2; assay type: biochemical; details: pH 4, 37° C., 20 minutes pre-incubation, fluorogenic substrate FS-2, tight-binding model; read-out: M2 Ki
memapsin 2, sequence (P56817 46-501): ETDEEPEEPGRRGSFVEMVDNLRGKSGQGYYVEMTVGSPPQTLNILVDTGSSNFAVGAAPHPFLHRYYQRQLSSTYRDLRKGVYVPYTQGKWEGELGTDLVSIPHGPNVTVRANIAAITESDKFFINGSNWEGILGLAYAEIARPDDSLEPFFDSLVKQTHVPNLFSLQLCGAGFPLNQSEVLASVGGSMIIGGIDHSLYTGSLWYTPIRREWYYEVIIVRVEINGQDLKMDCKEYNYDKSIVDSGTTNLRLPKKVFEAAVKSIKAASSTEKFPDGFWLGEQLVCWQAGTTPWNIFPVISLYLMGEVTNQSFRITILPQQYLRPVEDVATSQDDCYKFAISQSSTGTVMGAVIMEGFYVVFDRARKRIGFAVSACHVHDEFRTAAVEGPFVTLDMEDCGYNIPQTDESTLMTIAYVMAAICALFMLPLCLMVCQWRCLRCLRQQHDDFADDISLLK

Cathepsin D, sequence (P07339 65-412, species assumed): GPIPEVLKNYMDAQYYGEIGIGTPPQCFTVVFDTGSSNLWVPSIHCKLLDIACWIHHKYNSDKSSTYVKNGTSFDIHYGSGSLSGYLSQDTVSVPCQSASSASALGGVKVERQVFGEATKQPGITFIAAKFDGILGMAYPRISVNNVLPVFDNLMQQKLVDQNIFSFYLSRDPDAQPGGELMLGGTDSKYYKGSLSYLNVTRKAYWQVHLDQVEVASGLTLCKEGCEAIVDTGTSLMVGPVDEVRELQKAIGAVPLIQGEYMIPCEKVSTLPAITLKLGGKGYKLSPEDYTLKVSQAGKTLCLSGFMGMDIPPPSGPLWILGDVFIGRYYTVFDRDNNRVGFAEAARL

| Ki (Cathepsin D) [nM] | Ki (memapsin 2) [nM] | SMILES |
| --- | --- | --- |
| < 100 | < 100 | COCCOCCOC(=O)C[C@H](NC(=O)OCc1nc(C)oc1C)C(=O)N[C@@H](CC(C)C)[C@@H](O)C[C@@H](C)C(=O)N[C@H](C(=O)NCC(C)C)C(C)C [(S)-2-(2-methoxyethoxy)ethyl 3-(((2,5-dimethyloxazol-4-yl)methoxy)carbonylamino)-4-((4S,5S,7R)-5-hydroxy-8-((S)-1-(isobutylamino)-3-methyl-1-oxobutan-2-ylamino)2,7-dimethyl-8-oxooctan-4-ylamino)-4-oxobutanoate] |
| < 100 | < 100 | Cc1nc(COC(=O)N[C@@H](CC(=O)OCc2ccccc2)C(=O)N[C@@H](CC(C)C)[C@@H](O)C[C@@H](C)C(=O)N[C@H](C(=O)NCC(C)C)C(C)C)c(C)o1 [(S)-benzyl 3-(((2,5-dimethyloxazol-4-yl)methoxy)carbonylamino)-4-((4S,5S,7R)-5-hydroxy-8-((S)-1-(isobutylamino)-3-methyl-1-oxobutan-2-ylamino)2,7-dimethyl-8-oxooctan-4-ylamino)-4-oxobutanoate] |
|  | < 100 | CCNC(=O)C[C@H](NC(=O)[C@@H](C)Cc1nc(C)cs1)C(=O)N[C@@H](CC(C)C)[C@@H](O)C[C@@H](C)C(=O)N[C@H](C(=O)NCC(C)C)C(C)C [(S)-N4-ethyl-N1-((4S,5S,7R)-5-hydroxy-8-((S)-1-(isobutylamino)-3-methyl-1-oxobutan-2-ylamino)-2,7-dimethyl-8-oxooctan-4-yl)-2-((S)-2-methyl-3-(4-methylthiazol-2-yl)propanamido)succinamide] |
| 100 to 600 | 100 to 600 | Cc1csc(C[C@H](C)C(=O)N[C@@H](CC(=O)O)C(=O)N[C@@H](CC(C)C)[C@@H](O)C[C@@H](C)C(=O)N[C@H](C(=O)NCC(C)C)C(C)C)n1 [(S)-4-((4S,5S,7R)-5-hydroxy-8-((S)-1-(isobutylamino)-3-methyl-1-oxobutan-2-ylamino)-2,7-dimethyl-8-oxooctan-4-ylamino)-3-((S)-2-methyl-3-(4-methylthiazol-2-yl)propanamido)-4-oxobutanoic acid] |
|  | 100 to 600 | Cc1nc(COC(=O)N[C@@H](CC(=O)N(C)C)C(=O)N[C@@H](CC(C)C)[C@@H](O)C[C@@H](C)C(=O)N[C@H](C(=O)NCC(C)C)C(C)C)c(C)o1 [(2,5-dimethyloxazol-4-yl)methyl (5S,8S,9S,11R,14S)-9-hydroxy-8-isobutyl-14-isopropyl-2,11,18-trimethyl-3,6,12,15-tetraoxo-2,7,13,16-tetraazanonadecan-5-ylcarbamate] |
|  | > 600 | Cc1cc(C)n(CCC(=O)N[C@@H](CC(N)=O)C(=O)N[C@@H](CC(C)C)[C@@H](O)C[C@@H](C)C(=O)NC2(C(=O)NCC(C)C)CCCC2)n1 [(S)-2-(3-(3,5-dimethyl-1H-pyrazol-1-yl)propanamido)-N1-((4S,5S,7R)-5-hydroxy-8-(1-(isobutylcarbamoyl)cyclopentylamino)-2,7-dimethyl-8-oxooctan-4-yl)succinamide] |
|  | > 600 | Cc1cc(C)n(CCC(=O)N[C@@H](CC(N)=O)C(=O)N[C@@H](CC(C)C)[C@@H](O)C[C@@H](C)C(=O)NC(C)(C)C(=O)NCC(C)C)n1 [(S)-2-(3-(3,5-dimethyl-1H-pyrazol-1-yl)propanamido)-N1-((4S,5S,7R)-5-hydroxy-8-(1-(isobutylamino)-2-methyl-1-oxopropan-2-ylamino)-2,7-dimethyl-8-oxooctan-4-yl)succinamide] |
| > 600 | > 600 | Cc1csc(C[C@H](C)C(=O)N[C@@H](CNC(=O)OC(C)(C)C)C(=O)N[C@@H](CC(C)C)[C@@H](O)C[C@@H](C)C(=O)N[C@H](CS(=O)(=O)CC(C)C)C(C)C)n1 [tert-butyl (S)-3-((4S,5S,7R)-5-hydroxy-8-((S)-1-(isobutylsulfonyl)-3-methylbutan-2-ylamino)-2,7-dimethyl-8-oxooctan-4-ylamino)-2-((S)-2-methyl-3-(4-methylthiazol-2-yl)propanamido)-3-oxopropylcarbamate] |
| < 100 | > 600 | COc1ccc(C[C@H](NC(=O)[C@H](CNC(=O)OC(C)(C)C)NC(=O)[C@@H](C)Cc2nc(C)cs2)[C@@H](O)C[C@@H](C)C(=O)N[C@H](C(=O)NCC(C)C)C(C)C)cc1 [tert-butyl (S)-3-((2S,3S,5R)-3-hydroxy-6-((S)-1-(isobutylamino)-3-methyl-1-oxobutan-2-ylamino)-1-(4-methoxyphenyl)-5-methyl-6-oxohexan-2-ylamino)-2-((S)-2-methyl-3-(4-methylthiazol-2-yl)propanamido)-3-oxopropylcarbamate] |
|  | > 600 | COCC[C@H](NC(=O)[C@H](C)C[C@H](O)[C@H](CC(C)C)NC(=O)[C@H](CC(N)=O)NC(=O)CCn1nc(C)cc1C)C(=O)NCC(C)C [(S)-2-(3-(3,5-dimethyl-1H-pyrazol-1-yl)propanamido)-N1-((4S,5S,7R)-5-hydroxy-8-((S)-1-(isobutylamino)-4-methoxy-1-oxobutan-2-ylamino)-2,7-dimethyl-8-oxooctan-4-yl)succinamide] |
| < 100 | 100 to 600 | Cc1nc(COC(=O)N[C@@H](CC(=O)O)C(=O)N[C@@H](CC(C)C)[C@@H](O)C[C@@H](C)C(=O)N[C@H](C(=O)NCC(C)C)C(C)C)c(C)o1 [(S)-3-(((2,5-dimethyloxazol-4-yl)methoxy)carbonylamino)-4-((4S,5S,7R)-5-hydroxy-8-((S)-1-(isobutylamino)-3-methyl-1-oxobutan-2-ylamino)2,7-dimethyl-8-oxooctan-4-ylamino)-4-oxobutanoic acid] |
| 100 to 600 | 100 to 600 | CC(=O)NC[C@H](NC(=O)OCc1nc(C)cs1)C(=O)N[C@@H](CC(C)C)[C@@H](O)C[C@@H](C)C(=O)N[C@H](C(=O)NCC(C)C)C(C)C [(4-methylthiazol-2-yl)methyl (5S,8S,9S,11R,14S)-9-hydroxy-8-isobutyl-14-isopropyl-11,18-dimethyl-2,6,12,15-tetraoxo-3,7,13,16-tetraazanonadecan-5-yicarbamate] |
|  | < 100 | Cc1cc(C)n(CCC(=O)N[C@@H](CC(=O)OCc2ccccc2)C(=O)N[C@@H](CC(C)C)[C@@H](O)C[C@@H](C)C(=O)N[C@H](C(=O)NCC(C)C)C(C)C)n1 [(S)-benzyl 3-(3-(3,5-dimethyl-1H-pyrazol-1-yl)propanamido)-4-((4S,5S,7R)-5-hydroxy-8-((S)-1-(isobutylamino)-3-methyl-1-oxobutan-2-ylamino)-2,7-dimethyl-8-oxooctan-4-ylamino)-4-oxobutanoate] |
|  | > 600 | Cc1cc(C)n(CCC(=O)N[C@@H](CC(N)=O)C(=O)N[C@@H](CC(C)C)[C@@H](O)C[C@@H](C)C(=O)NC(CO)C(=O)NCC(C)C)n1 (stereo partly drawn) [(2S)-2-(3-(3,5-dimethyl-1H-pyrazol-1-yl)propanamido)-N1-((4S,5S,7R)-5-hydroxy-8-(3-hydroxy-1-(isobutylamino)-1-oxopropan-2-ylamino)-2,7-dimethyl-8-oxooctan-4-yl)succinamide] |
| < 100 | 100 to 600 | Cc1cc(C)n(CCC(=O)N[C@@H](CC(N)=O)C(=O)N[C@@H](CC(C)C)[C@@H](O)C[C@@H](C)C(=O)N[C@H](C(=O)NCC(C)C)C(C)C)n1 [(S)-2-(3-(3,5-dimethyl-1H-pyrazol-1-yl)propanamido)-N1-((4S,5S,7R)-5-hydroxy-8-((S)-1-(isobutylamino)-3-methyl-1-oxobutan-2-ylamino)-2,7-dimethyl-8-oxooctan-4-yl)succinamide] |
|  | 100 to 600 | Cc1cc(C)n(CCC(=O)N[C@@H](CC(=O)O)C(=O)N[C@@H](CC(C)C)[C@@H](O)C[C@@H](C)C(=O)N[C@H](C(=O)NCC(C)C)C(C)C)n1 [(S)-3-(3-(3,5-dimethyl-1H-pyrazol-1-yl)propanamido)-4-((4S,5S,7R)-5-hydroxy-8-((S)-1-(isobutylamino)-3-methyl-1-oxobutan-2-ylamino)-2,7-dimethyl-8-oxooctan-4-ylamino)-4-oxobutanoic acid] |
| > 600 | 100 to 600 | Cc1csc(COC(=O)N[C@@H](CC(N)=O)C(=O)N[C@@H](CC(C)C)[C@@H](O)C[C@@H](C)C(=O)N[C@H](C(=O)NCC(C)C)C(C)C)n1 [(4-methylthiazol-2-yl)methyl (S)-4-amino-1-((4S,5S,7R)-5-hydroxy-8-((S)-1-(isobutylamino)-3-methyl-1-oxobutan2-ylamino)-2,7-dimethyl-8-oxooctan-4-ylamino)-1,4-dioxobutan-2-ylcarbamate] |
| 100 to 600 | > 600 | CC[C@H](Cn1nc(C)cc1C)C(=O)N[C@@H](CNC(=O)OC(C)(C)C)C(=O)N[C@@H](CC(C)C)[C@@H](O)C[C@@H](C)C(=O)N[C@H](C(=O)NCC(F)(F)F)C(C)C [tert-butyl (S)-2-((R)-2-((3,5-dimethyl-1H-pyrazol-1-yl)methyl)butanamido)-3-((4S,5S,7R)-5-hydroxy-2,7-dimethyl-8-((S)-3-methyl-1-oxo-1-(2,2,2-trifluoroethylamino)butan-2-ylamino)-8-oxooctan-4-ylamino)-3-oxopropylcarbamate] |
|  | 100 to 600 | Cc1cc(C)n(CC(C)C(=O)N[C@@H](CC(N)=O)C(=O)N[C@@H](CC(C)C)[C@@H](O)C[C@@H](C)C(=O)N[C@H](C(=O)NCC(C)C)C(C)C)n1 (stereo partly drawn) [(2S)-2-(3-(3,5-dimethyl-1H-pyrazol-1-yl)-2-methylpropanamido)-N1-((4S,5S,7R)-5-hydroxy-8-((S)-1-(isobutylamino)-3-methyl-1-oxobutan-2-ylamino)-2,7-dimethyl-8-oxooctan-4-yl)succinamide] |
|  | > 600 | CC[C@H](Cc1nc(C)cs1)C(=O)N[C@@H](CNC(=O)OC(C)(C)C)C(=O)N[C@@H](CC(C)C)[C@@H](O)C[C@@H](C)C(=O)N[C@H](C(=O)NCC(C)C)C(C)C [tert-butyl (S)-3-((4S,5S,7R)-5-hydroxy-8-((S)-1-(isobutylamino)-3-methyl-1-oxobutan-2-ylamino)-2,7-dimethyl-8-oxooctan-4-ylamino)-2-((R)-2-((4-methylthiazol-2-yl)methyl)butanamido)-3-oxopropylcarbamate] |
